PubChem BioAssay (NCI)
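Grown in 96-well plates, cells were treated for 48 hours with each compound at five concentrations. Insufficient inhibition: endpoint recorded as highest concentration tested. Abbreviation: GI50, concentration required for 50% inhibition of growth. TGI: total growth inhibition.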

Legend:
Assay in all cases: DTP human tumour cell line panel, 48 h
786-0 renal = system: 786-0 renal
A498 renal = system: A498 renal
A549 NSCLC = system: A549 NSCLC
ACHN renal = system: ACHN renal
BT-549 breast = system: BT-549 breast
CAKI-1 renal = system: CAKI-1 renal
CCRF-CEM leukemia = system: CCRF-CEM leukemia
COLO 205 colon = system: COLO 205 colon
DU-145 prostate = system: DU-145 prostate
EKVX NSCLC = system: EKVX NSCLC
HCC-2998 colon = system: HCC-2998 colon
HCT-116 colon = system: HCT-116 colon
HCT-15 colon = system: HCT-15 colon
HL-60(TB) leukemia = system: HL-60(TB) leukemia
HOP-62 NSCLC = system: HOP-62 NSCLC
HOP-92 NSCLC = system: HOP-92 NSCLC
HS 578T breast = system: HS 578T breast
HT29 colon = system: HT29 colon
K-562 leukemia = system: K-562 leukemia
KM12 colon = system: KM12 colon
LOX IMVI melanoma = system: LOX IMVI melanoma
M14 melanoma = system: M14 melanoma
MALME-3M melanoma = system: MALME-3M melanoma
MDA-MB-231 breast = system: MDA-MB-231 breast
MDA-MB-435 = system: MDA-MB-435
MOLT-4 leukemia = system: MOLT-4 leukemia
NCI-H226 lung = system: NCI-H226 lung
NCI-H23 lung = system: NCI-H23 lung
NCI-H460 lung = system: NCI-H460 lung
NCI-H522 lung = system: NCI-H522 lung
NCI/ADR-RES ovarian = system: NCI/ADR-RES ovarian
OVCAR-3 ovarian = system: OVCAR-3 ovarian
OVCAR-4 ovarian = system: OVCAR-4 ovarian
OVCAR-5 ovarian = system: OVCAR-5 ovarian
OVCAR-8 ovarian = system: OVCAR-8 ovarian
PC-3 prostate = system: PC-3 prostate
RPMI-8226 leukemia = system: RPMI-8226 leukemia
RXF 393 renal = system: RXF 393 renal
SF-268 CNS = system: SF-268 CNS
SF-295 CNS = system: SF-295 CNS
SF-539 CNS = system: SF-539 CNS
SK-MEL-2 melanoma = system: SK-MEL-2 melanoma
SK-MEL-28 melanoma = system: SK-MEL-28 melanoma
SK-MEL-5 melanoma = system: SK-MEL-5 melanoma
SK-OV-3 ovarian = system: SK-OV-3 ovarian
SN12C renal = system: SN12C renal
SNB-19 CNS = system: SNB-19 CNS
SNB-75 CNS = system: SNB-75 CNS
SR leukemia = system: SR leukemia
SW-620 colon = system: SW-620 colon
T-47D breast = system: T-47D breast
TK-10 renal = system: TK-10 renal
U251 CNS = system: U251 CNS
UACC-257 melanoma = system: UACC-257 melanoma
UACC-62 melanoma = system: UACC-62 melanoma
UO-31 renal = system: UO-31 renal

Question: For `Oc1ccc(CCl)c2cccnc12`, which GI50 (786-0 renal) is on record?
Answer: 37.7 µM

Question: And the TGI (786-0 renal)?
Answer: > 100 µM

Question: What about the GI50 (A498 renal) of the same molecule?
Answer: 46.5 µM

Question: What about the TGI (A498 renal) of the same molecule?
Answer: > 100 µM

Question: And the GI50 (A549 NSCLC)?
Answer: 14.3 µM

Question: What about the TGI (A549 NSCLC) of the same molecule?
Answer: > 100 µM

Question: And the GI50 (ACHN renal)?
Answer: 6.88 µM

Question: And the TGI (ACHN renal)?
Answer: > 100 µM

Question: And the GI50 (BT-549 breast)?
Answer: 32.4 µM

Question: What about the TGI (BT-549 breast) of the same molecule?
Answer: > 100 µM

Question: What about the GI50 (CAKI-1 renal) of the same molecule?
Answer: 5.91 µM

Question: And the TGI (CAKI-1 renal)?
Answer: 53.3 µM

Question: What about the GI50 (CCRF-CEM leukemia) of the same molecule?
Answer: 4.1 µM

Question: What about the TGI (CCRF-CEM leukemia) of the same molecule?
Answer: > 100 µM

Question: What about the GI50 (COLO 205 colon) of the same molecule?
Answer: 7.05 µM

Question: What about the TGI (COLO 205 colon) of the same molecule?
Answer: > 100 µM

Question: And the GI50 (DU-145 prostate)?
Answer: 15.7 µM

Question: What about the TGI (DU-145 prostate) of the same molecule?
Answer: > 100 µM

Question: And the GI50 (EKVX NSCLC)?
Answer: 3.21 µM

Question: And the TGI (EKVX NSCLC)?
Answer: 31.6 µM

Question: What about the GI50 (HCC-2998 colon) of the same molecule?
Answer: 33.5 µM

Question: What about the TGI (HCC-2998 colon) of the same molecule?
Answer: > 100 µM

Question: And the GI50 (HCT-116 colon)?
Answer: 3.29 µM

Question: What about the TGI (HCT-116 colon) of the same molecule?
Answer: > 100 µM

Question: What about the GI50 (HCT-15 colon) of the same molecule?
Answer: 3.8 µM

Question: And the TGI (HCT-15 colon)?
Answer: > 100 µM

Question: What about the GI50 (HL-60(TB) leukemia) of the same molecule?
Answer: 1.36 µM

Question: What about the TGI (HL-60(TB) leukemia) of the same molecule?
Answer: 17.7 µM

Question: What about the GI50 (HOP-62 NSCLC) of the same molecule?
Answer: 16 µM

Question: What about the TGI (HOP-62 NSCLC) of the same molecule?
Answer: > 100 µM

Question: What about the GI50 (HOP-92 NSCLC) of the same molecule?
Answer: 14.5 µM

Question: And the TGI (HOP-92 NSCLC)?
Answer: 90 µM

Question: And the GI50 (HS 578T breast)?
Answer: 6.94 µM

Question: What about the TGI (HS 578T breast) of the same molecule?
Answer: 91.3 µM

Question: And the GI50 (HT29 colon)?
Answer: 9.68 µM

Question: And the TGI (HT29 colon)?
Answer: > 100 µM

Question: What about the GI50 (K-562 leukemia) of the same molecule?
Answer: 3.39 µM

Question: What about the TGI (K-562 leukemia) of the same molecule?
Answer: > 100 µM

Question: What about the GI50 (KM12 colon) of the same molecule?
Answer: 11.3 µM

Question: What about the TGI (KM12 colon) of the same molecule?
Answer: > 100 µM

Question: What about the GI50 (LOX IMVI melanoma) of the same molecule?
Answer: 4.9 µM

Question: And the TGI (LOX IMVI melanoma)?
Answer: > 100 µM

Question: What about the GI50 (M14 melanoma) of the same molecule?
Answer: 3.2 µM

Question: And the TGI (M14 melanoma)?
Answer: > 100 µM

Question: What about the GI50 (MALME-3M melanoma) of the same molecule?
Answer: 4.44 µM

Question: And the TGI (MALME-3M melanoma)?
Answer: 36 µM

Question: What about the GI50 (MDA-MB-231 breast) of the same molecule?
Answer: 6.07 µM

Question: What about the TGI (MDA-MB-231 breast) of the same molecule?
Answer: > 100 µM

Question: And the GI50 (MDA-MB-435)?
Answer: 5.81 µM

Question: What about the TGI (MDA-MB-435) of the same molecule?
Answer: 95.3 µM

Question: And the GI50 (MOLT-4 leukemia)?
Answer: 3.96 µM

Question: And the TGI (MOLT-4 leukemia)?
Answer: > 100 µM

Question: What about the GI50 (NCI-H226 lung) of the same molecule?
Answer: 34.6 µM

Question: And the TGI (NCI-H226 lung)?
Answer: > 100 µM

Question: What about the GI50 (NCI-H23 lung) of the same molecule?
Answer: 6.13 µM

Question: And the TGI (NCI-H23 lung)?
Answer: > 100 µM

Question: And the GI50 (NCI-H460 lung)?
Answer: 3.95 µM

Question: What about the TGI (NCI-H460 lung) of the same molecule?
Answer: 16 µM

Question: And the GI50 (NCI-H522 lung)?
Answer: 3.62 µM

Question: What about the TGI (NCI-H522 lung) of the same molecule?
Answer: > 100 µM

Question: What about the GI50 (NCI/ADR-RES ovarian) of the same molecule?
Answer: 2.98 µM

Question: And the TGI (NCI/ADR-RES ovarian)?
Answer: 28.9 µM

Question: And the GI50 (OVCAR-3 ovarian)?
Answer: 2.08 µM

Question: What about the TGI (OVCAR-3 ovarian) of the same molecule?
Answer: 5.5 µM

Question: And the GI50 (OVCAR-4 ovarian)?
Answer: 3.41 µM

Question: What about the TGI (OVCAR-4 ovarian) of the same molecule?
Answer: > 100 µM

Question: What about the GI50 (OVCAR-5 ovarian) of the same molecule?
Answer: 17.5 µM

Question: What about the TGI (OVCAR-5 ovarian) of the same molecule?
Answer: > 100 µM

Question: What about the GI50 (OVCAR-8 ovarian) of the same molecule?
Answer: 4.93 µM

Question: What about the TGI (OVCAR-8 ovarian) of the same molecule?
Answer: > 100 µM

Question: What about the GI50 (PC-3 prostate) of the same molecule?
Answer: 12.3 µM

Question: And the TGI (PC-3 prostate)?
Answer: > 100 µM

Question: And the GI50 (RPMI-8226 leukemia)?
Answer: 4.25 µM

Question: What about the TGI (RPMI-8226 leukemia) of the same molecule?
Answer: > 100 µM

Question: What about the GI50 (RXF 393 renal) of the same molecule?
Answer: 32.9 µM

Question: What about the TGI (RXF 393 renal) of the same molecule?
Answer: > 100 µM

Question: And the GI50 (SF-268 CNS)?
Answer: 6.84 µM

Question: What about the TGI (SF-268 CNS) of the same molecule?
Answer: > 100 µM

Question: What about the GI50 (SF-295 CNS) of the same molecule?
Answer: 3.72 µM

Question: And the TGI (SF-295 CNS)?
Answer: 25.8 µM

Question: What about the GI50 (SF-539 CNS) of the same molecule?
Answer: 14.5 µM

Question: What about the TGI (SF-539 CNS) of the same molecule?
Answer: > 100 µM

Question: What about the GI50 (SK-MEL-2 melanoma) of the same molecule?
Answer: > 100 µM

Question: And the TGI (SK-MEL-2 melanoma)?
Answer: > 100 µM

Question: And the GI50 (SK-MEL-28 melanoma)?
Answer: 59 µM

Question: What about the TGI (SK-MEL-28 melanoma) of the same molecule?
Answer: > 100 µM

Question: And the GI50 (SK-MEL-5 melanoma)?
Answer: 12.4 µM

Question: What about the TGI (SK-MEL-5 melanoma) of the same molecule?
Answer: 35.6 µM

Question: And the GI50 (SK-OV-3 ovarian)?
Answer: 43.8 µM

Question: What about the TGI (SK-OV-3 ovarian) of the same molecule?
Answer: > 100 µM

Question: And the GI50 (SN12C renal)?
Answer: 12.5 µM

Question: What about the TGI (SN12C renal) of the same molecule?
Answer: > 100 µM

Question: What about the GI50 (SNB-19 CNS) of the same molecule?
Answer: 22.9 µM

Question: What about the TGI (SNB-19 CNS) of the same molecule?
Answer: > 100 µM

Question: And the GI50 (SNB-75 CNS)?
Answer: 44 µM

Question: What about the TGI (SNB-75 CNS) of the same molecule?
Answer: > 100 µM

Question: And the GI50 (SR leukemia)?
Answer: 3.43 µM

Question: What about the TGI (SR leukemia) of the same molecule?
Answer: 53.6 µM

Question: And the GI50 (SW-620 colon)?
Answer: 4.12 µM

Question: What about the TGI (SW-620 colon) of the same molecule?
Answer: > 100 µM

Question: What about the GI50 (T-47D breast) of the same molecule?
Answer: 3.65 µM

Question: And the TGI (T-47D breast)?
Answer: > 100 µM

Question: What about the GI50 (TK-10 renal) of the same molecule?
Answer: > 100 µM

Question: What about the TGI (TK-10 renal) of the same molecule?
Answer: > 100 µM

Question: What about the GI50 (U251 CNS) of the same molecule?
Answer: 7.7 µM

Question: And the TGI (U251 CNS)?
Answer: > 100 µM

Question: And the GI50 (UACC-257 melanoma)?
Answer: 4.21 µM

Question: And the TGI (UACC-257 melanoma)?
Answer: > 100 µM

Question: What about the GI50 (UACC-62 melanoma) of the same molecule?
Answer: 8.37 µM

Question: What about the TGI (UACC-62 melanoma) of the same molecule?
Answer: > 100 µM

Question: What about the GI50 (UO-31 renal) of the same molecule?
Answer: 2.9 µM

Question: And the TGI (UO-31 renal)?
Answer: > 100 µM
